Test results: ChEMBL document CHEMBL1126307, “Conformational studies of muscarone analogues: X-ray analysis and molecular mechanics calculations” (J Med Chem, 1992)

Key:
Format in all cases: functional
[1] = Eudismic ratio was measured
Cavia porcellus [2] = organism: Cavia porcellus; test: Muscarinic potency was measured in guinea pig ileum; settings: for EC50: Cavia porcellus, Ileum
Rattus norvegicus [3] = organism: Rattus norvegicus; test: Muscarinic potency was measured in rat bladder; settings: for EC50: Rattus norvegicus
Rattus norvegicus [4] = organism: Rattus norvegicus; test: Muscarinic potency was measured in rat jejunum; settings: for EC50: Rattus norvegicus, Jejunum
Cavia porcellus [5] = organism: Cavia porcellus; test: Muscarinic potency was measured in guinea pig atria; settings: for EC50: Cavia porcellus

| SMILES | ER [1] | EC50 (Cavia porcellus [2]) | EC50 (Rattus norvegicus [3]) | EC50 (Rattus norvegicus [4]) | EC50 (Cavia porcellus [5]) | also measured |
| --- | --- | --- | --- | --- | --- | --- |
| C[C@H]1OC[C@@H](C[N+](C)(C)C)O1 (racemic) [listing 1 of 2 here] | 59 | – | – | – | – | – |
| C[C@@H]1O[C@H](C[N+](C)(C)C)CC1=O [listing 1 of 2 here] | – | – | – | – | – | -Log EC50 (Cavia porcellus [2]): 9; -Log EC50 (Rattus norvegicus [3]): 7.28; -Log EC50 (Rattus norvegicus [4]): 7.89; -Log EC50 (Cavia porcellus [5]): 8.62 |
| C[C@H]1OC[C@@H](C[N+](C)(C)C)O1 (racemic) [listing 2 of 2 here] | – | – | – | – | – | -Log EC50 (Cavia porcellus [2]): 8.38; -Log EC50 (Rattus norvegicus [3]): 6.91; -Log EC50 (Rattus norvegicus [4]): 7.58; -Log EC50 (Cavia porcellus [5]): 8.02 |
| C=C1C[C@@H](C[N+](C)(C)C)O[C@H]1C (racemic) | – | 41.7 nM | 741 nM | 166 nM | 794 nM | – |
| C[C@H]1OC[C@@H](C[N+](C)(C)C)O1 [listing 1 of 2 here] | – | 4.17 nM | 123 nM | 26.3 nM | 9.55 nM | – |
| C[C@@H]1O[C@H](C[N+](C)(C)C)CS1 (mixture of isomers) [listing 1 of 2 here] | 170 | – | – | – | – | – |
| CN1OC(C[N+](C)(C)C)CC1=O (stereo in doubt; 4) [listing 1 of 2 here] | 2.5 | – | – | – | – | – |
| C[C@H]1CC[C@@H](C[N+](C)(C)C)O1 | – | 135 nM | 2400 nM | 646 nM | 1320 nM | – |
| C=C1C[C@@H](C[N+](C)(C)C)O[C@H]1C | – | – | – | – | – | -Log EC50 (Cavia porcellus [2]): 7.38; -Log EC50 (Rattus norvegicus [3]): 6.13; -Log EC50 (Rattus norvegicus [4]): 6.78; -Log EC50 (Cavia porcellus [5]): 6.1 |
| CN1OC(C[N+](C)(C)C)CC1=O (racemic) [listing 1 of 2 here] | – | – | – | – | – | -Log EC50 (Cavia porcellus [2]): 7.95; -Log EC50 (Rattus norvegicus [3]): 6.44; -Log EC50 (Rattus norvegicus [4]): 7.13; -Log EC50 (Cavia porcellus [5]): 7.62 |
| C[C@H]1OC[C@@H](C[N+](C)(C)C)O1 [listing 2 of 2 here] | 59 | – | – | – | – | – |
| C[C@@H]1O[C@H](C[N+](C)(C)C)CC1=O (racemic) [listing 1 of 2 here] | 3.1 | – | – | – | – | – |
| C[C@@H]1O[C@H](C[N+](C)(C)C)CC1O (mixture of isomers) | 331 | 31.6 nM | 575 nM | 155 nM | 58.9 nM | – |
| C[C@@H]1O[C@H](C[N+](C)(C)C)CS1 [listing 1 of 2 here] | 170 | – | – | – | – | – |
| CN1OC(C[N+](C)(C)C)CC1=O (stereo in doubt; 4) [listing 2 of 2 here] | – | 11.2 nM | 363 nM | 74.1 nM | 24 nM | – |
| C[C@@H]1O[C@H](C[N+](C)(C)C)CS1 [listing 2 of 2 here] | – | 5.89 nM | 229 nM | 28.2 nM | 42.7 nM | – |
| CN1OC(C[N+](C)(C)C)CC1=O (racemic) [listing 2 of 2 here] | 2.5 | – | – | – | – | – |
| C[C@H]1CC[C@@H](C[N+](C)(C)C)O1 (racemic) | – | – | – | – | – | -Log EC50 (Cavia porcellus [2]): 6.87; -Log EC50 (Rattus norvegicus [3]): 5.62; -Log EC50 (Rattus norvegicus [4]): 6.19; -Log EC50 (Cavia porcellus [5]): 5.88 |
| C[C@@H]1O[C@H](C[N+](C)(C)C)C[C@H]1O [MUSCARINE] | 331 | 31.6 nM | 575 nM | 155 nM | 58.9 nM | – |
| C[C@@H]1O[C@H](C[N+](C)(C)C)CC1=O [listing 2 of 2 here] | 3.1 | – | – | – | – | – |
| C[C@@H]1O[C@H](C[N+](C)(C)C)CS1 (mixture of isomers) [listing 2 of 2 here] | – | – | – | – | – | -Log EC50 (Cavia porcellus [2]): 8.23; -Log EC50 (Rattus norvegicus [3]): 6.64; -Log EC50 (Rattus norvegicus [4]): 7.55; -Log EC50 (Cavia porcellus [5]): 7.37 |
| C[C@@H]1O[C@H](C[N+](C)(C)C)CC1=O (racemic) [listing 2 of 2 here] | – | 1 nM | – | 12.9 nM | 2.4 nM | – |
